Source: patent US12624034B2, “Non-covalent modifiers of AKT1 and uses thereof” (Terremoto Biosciences, Inc., priority 2023, dated 2026)
pIC50: −log10 of the molar value. Read-outs that look alike come from different tables or passages of the source.

Tests used:
AKT2 = molecular target: T1, AKT2 (Homo sapiens, UniProt P31751); test: Live cell AKT2 target engagement by NanoBRET competitive probe displacement in HEK293 cells; type: binding; conditions: 2 h at 37° C., read-out: AKT2 IC50
T1 construct: expressed in transfected cells; host or cells: HEK293
T1 sequence (P31751 whole entry): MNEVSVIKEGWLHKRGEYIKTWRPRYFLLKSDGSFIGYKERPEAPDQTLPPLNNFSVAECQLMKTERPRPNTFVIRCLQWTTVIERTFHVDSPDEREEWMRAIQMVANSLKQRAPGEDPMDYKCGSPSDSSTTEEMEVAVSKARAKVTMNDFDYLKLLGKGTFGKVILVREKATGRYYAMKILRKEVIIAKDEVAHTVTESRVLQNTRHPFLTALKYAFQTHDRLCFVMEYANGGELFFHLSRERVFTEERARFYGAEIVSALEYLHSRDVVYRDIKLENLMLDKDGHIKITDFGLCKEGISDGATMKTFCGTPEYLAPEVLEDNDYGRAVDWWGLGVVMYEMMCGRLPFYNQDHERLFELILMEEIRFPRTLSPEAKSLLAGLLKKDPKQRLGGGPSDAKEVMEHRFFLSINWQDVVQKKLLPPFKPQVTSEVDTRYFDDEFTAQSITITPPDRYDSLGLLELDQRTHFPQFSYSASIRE

AKT1 WT = molecular target: T2, AKT1 WT (Homo sapiens, UniProt P31749); test: Live cell AKT1 WT target engagement by NanoBRET competitive probe displacement in HEK293 cells; type: binding; conditions: 2 h at 37° C., read-out: AKT1 WT IC50
T2 construct: expressed in transfected cells; host or cells: HEK293
T2 sequence (P31749 whole entry): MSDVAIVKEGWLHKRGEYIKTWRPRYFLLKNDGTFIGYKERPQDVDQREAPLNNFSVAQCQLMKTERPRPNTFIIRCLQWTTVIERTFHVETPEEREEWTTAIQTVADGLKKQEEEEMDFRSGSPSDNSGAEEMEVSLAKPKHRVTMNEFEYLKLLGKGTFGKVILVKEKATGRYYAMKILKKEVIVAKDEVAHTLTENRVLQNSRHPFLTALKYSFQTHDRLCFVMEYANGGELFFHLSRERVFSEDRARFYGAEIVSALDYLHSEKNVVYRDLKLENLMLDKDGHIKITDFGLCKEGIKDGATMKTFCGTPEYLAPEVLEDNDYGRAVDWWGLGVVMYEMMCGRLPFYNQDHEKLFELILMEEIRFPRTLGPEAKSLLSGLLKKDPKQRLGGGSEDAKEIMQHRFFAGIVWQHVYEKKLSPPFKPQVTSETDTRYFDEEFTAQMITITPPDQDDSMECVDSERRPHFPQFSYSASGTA

[1] = NanoBRET live cell target engagement, HEK293 cells
[2] = NanoBRET competitive probe displacement, live HEK293 cells

| pIC50 (AKT2; [1]) | pIC50 (AKT1 WT; [1]) | pIC50 (AKT2; [2]) | pIC50 (AKT1 WT; [2]) | SMILES |
| --- | --- | --- | --- | --- |
| 5.43 | 7.11 | – | – | Cn1ccc(C#Cc2ncccc2C(=O)N[C@H]2CCc3cc(-n4c(-c5cccnc5N)nc5ccc(-n6cccn6)nc54)ccc32)n1 [Compound 181] |
| – | – | 5.50 | 6.90 | Nc1ncccc1-c1nc2ccc(-n3cccn3)nc2n1-c1ccc2c(c1)CC[C@@H]2NC1CCN(C(=O)[C@H]2C[C@H]2F)CC1 [Compound 478] |
| 7.23 | 8.24 | – | – | Nc1ncccc1-c1nc2ccc(-n3cccn3)nc2n1-c1ccc2c(c1)CC[C@@H]2NC(=O)c1cccc(CO)c1 [Compound 240] |
| – | – | 5.27 | 6.91 | Nc1ncccc1-c1nc2ccc(-n3cccn3)nc2n1-c1ccc2c(c1)CC[C@@H]2NC1CCN(C(=O)[C@@H]2CCO2)CC1 [Compound 424] |
| 5.23 | 6.59 | – | – | CC(=O)N1CCC(N[C@H]2CCc3cc(-n4c(-c5cccnc5N)nc5ccc(-n6cccn6)nc54)ccc32)CC1 [Compound 109] |
| – | – | 5.45 | 6.38 | CN(C)CC#Cc1ccc2nc(-c3cccnc3N)n(-c3ccc4c(c3)CC[C@@H]4NC(=O)c3ccc(C(F)F)nc3)c2n1 [Compound 407] |
| 5.75 | 6.92 | – | – | Cn1ccc(CN[C@H]2CCc3cc(-n4c(-c5cccnc5N)nc5ccc(-n6cccn6)nc54)ccc32)n1 [Compound 206] |
| – | – | 7.70 | 8.21 | Cc1ccc(C(=O)N[C@H]2CCc3cc(-n4c(-c5cccnc5N)nc5ccc(-c6nc(C(F)F)cs6)nc54)ccc32)cn1 [Compound 403] |
| 5.74 | 6.81 | – | – | Nc1ncccc1-c1nc2ccc(-n3cccn3)nc2n1-c1ccc2c(c1)CC[C@@H]2NC1CCC1 [Compound 88, (S)-3-(3-(1-(cyclobutylamino)-2,3-dihydro-1H-inden-5-yl)-5-(1H-pyrazol-1-yl)-3H-imidazo[4,5-b]pyridin-2-yl)pyridin-2-amine] |
| 5.90 | 7.60 | – | – | Nc1ncccc1-c1nc2ccc(-n3cccn3)nc2n1-c1ccc2c(c1)CC[C@@H]2n1cc(C2CCO2)nn1 (stereo partly drawn) [Compound 353] |
| < 5.00 | 6.66 | – | – | Cc1coc(-c2ccc3nc(-c4cccnc4N)n(-c4ccc5c(c4)CC[C@@H]5NC(=O)c4nccnc4C)c3n2)n1 [Compound 244] |
| 5.92 | 7.26 | – | – | Nc1ncccc1-c1nc2ccc(-n3cccn3)nc2n1-c1ccc2c(c1)CC[C@@H]2N1CCCC1 [Compound 330] |
| 6.50 | 7.60 | – | – | Nc1ncccc1-c1nc2ccc(-n3cccn3)nc2n1-c1ccc2c(c1)CC[C@@H]2NC(=O)c1cccnc1C1CC1 [Compound 103] |
| 7.71 | 8.10 | – | – | COc1cc(C(=O)N[C@H]2CCc3cc(-n4c(-c5cccnc5N)nc5ccc(-n6cccn6)nc54)ccc32)cc(F)n1 [Compound 344] |
| 7.38 | 7.72 | – | – | Nc1ncccc1-c1nc2ccc(-n3cccn3)nc2n1-c1ccc2c(c1)CC[C@@H]2NC(=O)c1cc(F)cc(F)c1 [Compound 331] |
| 7.66 | 8.33 | – | – | Cc1ncc(F)cc1C(=O)N[C@H]1CCc2cc(-n3c(-c4cccnc4N)nc4ccc(-n5cccn5)nc43)ccc21 [Compound 159] |
| 6.19 | 7.70 | – | – | Nc1ncccc1-c1nc2ccc(-n3cccn3)nc2n1-c1ccc2c(c1)CC[C@@H]2n1ccnn1 [Compound 188] |
| – | – | 5.68 | 7.17 | Nc1ncccc1-c1nc2ccc(-n3cccn3)nc2n1-c1ccc2c(c1)CC[C@@H]2NC1CCN(C(=O)C2CCC2)CC1 [Compound 422] |
| 7.10 | 8.03 | – | – | Nc1ncccc1-c1nc2ccc(-n3cccn3)nc2n1-c1ccc2c(c1)CC[C@@H]2NC(=O)c1ccc2[nH]c(=O)oc2c1 [Compound 191] |
| – | – | 6.28 | 7.82 | Nc1ncccc1-c1nc2ccc(-n3ncc(OC(F)F)n3)nc2n1-c1ccc2c(c1)CC[C@@H]2NC(=O)c1cnc(C(F)F)s1 [Compound 595] |
| 6.28 | 7.36 | – | – | Cn1nccc1C(=O)N[C@H]1CCc2cc(-n3c(-c4cccnc4N)nc4ccc(-n5cccn5)nc43)ccc21 [Compound 144] |
| 7.67 | 8.17 | – | – | Cc1ncccc1C(=O)N[C@@H]1c2ccc(-n3c(-c4cccnc4N)nc4ccc(-n5cccn5)nc43)cc2CC1(F)F [Compound 187] |
| 7.22 | 8.12 | – | – | Nc1ncccc1-c1nc2ccc(-n3cccn3)nc2n1-c1ccc2c(c1)CC[C@@H]2NC(=O)c1cccc(F)c1 [Compound 332] |
| 7.22 | 8.51 | – | – | Nc1ncccc1-c1nc2ccc(-n3cccn3)nc2n1-c1ccc2c(c1)CC[C@@H]2NC(=O)c1ccc(O)c(Cl)c1 [Compound 258] |
| 7.13 | 8.22 | – | – | Cc1cc(C(=O)N[C@H]2CCc3cc(-n4c(-c5cccnc5N)nc5ccc(-n6cccn6)nc54)ccc32)ccn1 [Compound 75] |
| – | – | < 5.00 | 7.05 | Nc1ncccc1-c1nc2ccc(-n3cccn3)nc2n1-c1ccc2c(c1)CC[C@@H]2NC1CCN(C(=O)[C@H]2C[C@@H]2F)CC1 [Compound 479] |

| pIC50 (AKT2; [1]) | pIC50 (AKT1 WT; [1]) | pIC50 (AKT2; [2]) | pIC50 (AKT1 WT; [2]) | SMILES |
| --- | --- | --- | --- | --- |
| < 5.00 | 6.50 | – | – | CN(C)Cc1ncccc1C(=O)N[C@H]1CCc2cc(-n3c(-c4cccnc4N)nc4ccc(-n5cccn5)nc43)ccc21 [Compound 104] |
| 7.55 | 8.06 | – | – | CCc1ccc(C(=O)N[C@H]2CCc3cc(-n4c(-c5cccnc5N)nc5ccc(-n6cccn6)nc54)ccc32)cn1 [Compound 80] |
| 5.32 | 7.09 | – | – | Cc1cn([C@H]2CCc3cc(-n4c(-c5cccnc5N)nc5ccc(-n6cccn6)nc54)ccc32)nn1 [Compound 304] |
| 6.77 | 7.44 | – | – | CN(C)Cc1ccc(C(=O)N[C@H]2CCc3cc(-n4c(-c5cccnc5N)nc5ccc(-n6cccn6)nc54)ccc32)cn1 [Compound 85] |
| 6.79 | 8.12 | – | – | COc1cc(C(=O)N[C@H]2CCc3cc(-n4c(-c5cccnc5N)nc5ccc(-n6cccn6)nc54)ccc32)ccc1O [Compound 260] |
| 5.62 | 6.69 | – | – | Cc1cn(C)nc1C(=O)N[C@H]1CCc2cc(-n3c(-c4cccnc4N)nc4ccc(-n5cccn5)nc43)ccc21 [Compound 172] |
| – | – | 5.80 | 7.09 | CN(CC1CC1)[C@H]1CCc2cc(-n3c(-c4cccnc4N)nc4ccc(-n5cccn5)nc43)ccc21 [Compound 437] |
| – | – | 5.39 | 7.56 | N#Cc1cc(-n2nccn2)nc2c1nc(-c1cccnc1N)n2-c1ccc2c(c1)CC[C@@H]2NC(=O)c1ccc(C(F)F)nc1 [Compound 548] |
| 6.82 | 8.09 | – | – | Nc1ncccc1-c1nc2ccc(-n3cccn3)nc2n1-c1ccc2c(c1)CC[C@@H]2NC(=O)c1cnc(C(F)F)s1 [Compound 376] |
| 6.42 | 7.67 | – | – | Nc1ncccc1-c1nc2ccc(-n3cccn3)nc2n1-c1ccc2c(c1)CC[C@@H]2NC(=O)c1ccn(C2CC2)n1 [Compound 215] |
| – | – | 6.37 | 8.01 | Nc1ncccc1-c1nc2ccc(-n3ccc(N4CCC4)n3)nc2n1-c1ccc2c(c1)CC[C@@H]2NC1CCN(C(=O)C2CC2)CC1 [Compound 562] |
| – | – | 6.11 | 7.17 | Nc1ncccc1-c1nc2ccc(-n3cccn3)nc2n1-c1ccc2c(c1)CC[C@@H]2NC1CCN(c2ccccc2)C1 (stereo partly drawn) [Compound 470] |
| – | – | 6.05 | 7.78 | Cc1ccc(C(=O)N[C@H]2CCc3cc(-n4c(-c5ccccc5)nc5ccc(-c6ccn(C7CC7)n6)nc54)ccc32)cn1 [Compound 431, (S)—N-(5-(5-(1-cyclopropyl-1H-pyrazol-3-yl)-2-phenyl-3H-imidazo[4,5-b]pyridin-3-yl)-2,3-dihydro-1H-inden-1-yl)-6-methylnicotinamide] |
| 7.29 | 8.15 | – | – | Nc1ncc(C(=O)N[C@H]2CCc3cc(-n4c(-c5cccnc5N)nc5ccc(-n6cccn6)nc54)ccc32)cc1F [Compound 298] |
| 5.63 | 7.18 | – | – | Nc1ncccc1-c1nc2ccc(-c3ncco3)nc2n1-c1ccc2c(c1)CC[C@@H]2n1ccnn1 [Compound 246] |
| – | – | 5.89 | 7.24 | Nc1ncccc1-c1nc2ccc(-c3ccn(C(F)F)n3)nc2n1-c1ccc2c(c1)CC[C@@H]2NC1CCN(C(=O)C2CC2)CC1 [Compound 434] |
| 6.99 | 8.25 | – | – | Cc1ncc(C(=O)N[C@H]2CCc3cc(-n4c(-c5cccnc5N)nc5ccc(-n6cccn6)nc54)ccc32)s1 [Compound 120] |
| 7.16 | 8.33 | – | – | Cc1cnc2ccc(C(=O)N[C@H]3CCc4cc(-n5c(-c6cccnc6N)nc6ccc(-n7cccn7)nc65)ccc43)cn12 [Compound 71] |
| 7.15 | 7.96 | – | – | Cc1ccc(C(=O)N[C@H]2CCc3cc(-n4c(-c5cccnc5N)nc5ccc(-n6cccn6)nc54)ccc32)c(C)n1 [Compound 69] |
| – | – | 6.56 | 8.01 | Nc1ncccc1-c1nc2ccc(-n3ccc(N4CCS(=O)(=O)CC4)n3)nc2n1-c1ccc2c(c1)CC[C@@H]2NC1CCN(C(=O)C2CC2)CC1 [Compound 565] |
| 6.14 | 7.41 | – | – | Nc1ncccc1-c1nc2ccc(-n3cccn3)nc2n1-c1ccc2c(c1)CC[C@@H]2n1cc(Cc2ccccc2)nn1 [Compound 156] |
| 6.08 | 7.49 | – | – | CC#Cc1ncccc1C(=O)N[C@H]1CCc2cc(-n3c(-c4cccnc4N)nc4ccc(-n5cccn5)nc43)ccc21 [Compound 211] |
| 7.62 | 7.91 | – | – | Nc1ncccc1-c1nc2ccc(-n3cccn3)nc2n1-c1ccc2c(c1)CC[C@@H]2NC(=O)c1ccc2[nH]c(=O)sc2c1 [Compound 233] |
| 6.91 | 7.87 | – | – | COc1cc(C(=O)N[C@H]2CCc3cc(-n4c(-c5cccnc5N)nc5ccc(-n6cccn6)nc54)ccc32)n(C)n1 [Compound 158] |
| 5.81 | 7.19 | – | – | Cc1cnc(C(=O)N[C@H]2CCc3cc(-n4c(-c5cccnc5N)nc5ccc(-n6cccn6)nc54)ccc32)cn1 [Compound 185] |
